# Values of other authors, collected in US6749871B2, “Compositions for treating symptoms of urogenital/urological disorders” (Prater Herbs, L.L.C., priority 2002, dated 2004).
# System: benign prostatic hyperplasia
# Conditions: three-year clinical evaluation
compound,measurement,value
CC(C)(C)NC(=O)[C@H]1CC[C@H]2[C@@H]3CC[C@H]4NC(=O)C=C[C@]4(C)[C@H]3CC[C@]12C [Finasteride],Improvement in urinary flow rate,2.3 ml per second
same,Participants with side effects such as decreased libido and impotence,about four to five percent
same,Reduction in prostatic volume,about 27%
same,Reduction in symptom score,3.6 points
